This is an account of results in patent publication US20140045823A1 (Neurocrine Biosciences, Inc., priority 2012, published 2014).

Broadly, the EC50 is the concentration needed to bring the measured effect to its halfway point.

For the experiment, the target named is T1, human GPR119 (Homo sapiens, UniProt Q8TDV5).
T1 construct: expression vector for human GPR119 cDNA (Acc. No. NP_848566); expressed in transfected cells; Min-6/hGPR119
T1 sequence (Q8TDV5 1-335): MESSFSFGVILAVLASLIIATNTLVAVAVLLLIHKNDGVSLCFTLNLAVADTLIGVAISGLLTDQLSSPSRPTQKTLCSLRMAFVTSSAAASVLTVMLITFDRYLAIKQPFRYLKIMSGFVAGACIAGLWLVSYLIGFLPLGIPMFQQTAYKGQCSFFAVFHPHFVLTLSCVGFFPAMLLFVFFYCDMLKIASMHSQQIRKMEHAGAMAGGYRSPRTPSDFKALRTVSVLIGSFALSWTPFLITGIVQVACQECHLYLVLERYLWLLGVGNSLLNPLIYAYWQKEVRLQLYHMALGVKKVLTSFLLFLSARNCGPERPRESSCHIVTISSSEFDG
In words: AlphaScreen cAMP assay in MIN6 cells stably transfected with human GPR119. The class given is cell-based. As to conditions: Min-6/hGPR119 cells, 45 min at room temperature. The gist of the method:
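cAMP accumulation quantified by AlphaScreen after 45 min compound stimulation at about 20 °C. Stimulation buffer: pH 7.4 HEPES saline with 0.5 mM IBMX, 0.1% BSA, 1% DMSO final. Cells: MIN6 stably transfected with human GPR119, 10000/well, cultured 24 h beforehand.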
Background: Bead proximity is the source of the signal in Alpha formats.
Regarding `CC(C)(C)OC(=O)N1CCC(N(C(=O)c2cnc(-c3cnco3)nc2)C2CC2)CC1` [Example 9, 4-[Cyclopropyl-(2-oxazol-5-yl-pyrimidine-5-carbonyl)-amino]-piperidine-1-carboxylic acid tert-butyl ester], the EC50 came out at 224 nM. On to `CC(C)(C)OC(=O)N1CCC(N(C(=O)c2ccc(-c3cccc([N+](=O)[O-])c3)o2)C2CC2)CC1` [Example 62, 4-{Cyclopropyl-[5-(3-nitro-phenyl)-furan-2-carbonyl]-amino}-piperidine-1-carboxylic acid tert-butyl ester], for which the concentration giving a half-maximal response (EC50) came out at 786 nM. `Cc1nc(CNC(=O)c2ccc(-c3ncc(C(=O)N(C4CC4)C4CCN(C(=O)OC(C)(C)C)CC4)cn3)cc2)cs1` [Example 201, 4-[Cyclopropyl-(2-{4-[(2-methyl-thiazol-4-ylmethyl)-carbamoyl]-phenyl}-pyrimidine-5-carbonyl)-amino]-piperidine-1-carboxylic acid tert-butyl ester] displayed an EC50 of 180 nM. The value for `CC(C)(C)OC(=O)N1CCC(N(C(=O)c2cnc(-c3cccc(C#N)c3)nc2)C2CC2)CC1` [Example 75, 4-{[2-(3-Cyano-phenyl)-pyrimidine-5-carbonyl]-cyclopropyl-amino}-piperidine-1-carboxylic acid tert-butyl ester] was 170 nM; that for `CC(C)(C)OC(=O)N1CCC(N(C(=O)c2cnc(-c3ccc(CC#N)cc3)nc2)C2CC2)CC1` [Example 78, 4-{[2-(4-Cyanomethyl-phenyl)-pyrimidine-5-carbonyl]-cyclopropyl-amino}-piperidine-1-carboxylic acid tert-butyl ester] was 9 nM. Take `CC(C)(C)OC(=O)N1CCC(N(C(=O)c2cnc(-c3ccc(C(=O)NCC#N)c(F)c3)nc2)C2CC2)CC1` [Example 109, 4-({2-[4-(Cyanomethyl-carbamoyl)-3-fluoro-phenyl]-pyrimidine-5-carbonyl}-cyclopropyl-amino)-piperidine-1-carboxylic acid tert-butyl ester]: the EC50 was 85 nM. The value for `CC(C)(C)OC(=O)N1CCC(N(C(=O)c2cnc(-c3ccc(C(=O)NCC4CCCCO4)cc3)nc2)C2CC2)CC1` (stereo not drawn) [Example 225, 4-[Cyclopropyl-(2-{4-[(tetrahydro-pyran-2-ylmethyl)-carbamoyl]-phenyl}-pyrimidine-5-carbonyl)-amino]-piperidine-1-carboxylic acid tert-butyl ester] was 185 nM; that for `CC(C)OC(=O)N1CCC(N(C(=O)c2cnc(-c3ccc(C#N)c(F)c3)nc2)C2CC2)CC1` [Example 61, 4-{[2-(4-Cyano-3-fluoro-phenyl)-pyrimidine-5-carbonyl]-cyclopropyl-amino}-piperidine-1-carboxylic acid isopropyl ester] was 13 nM; that for `CC(C)(C)OC(=O)N1CCC(N(C(=O)c2csc(-c3ccc(C#N)cc3)n2)C2CC2)CC1` [Example 47, 4-{[2-(4-Cyano-phenyl)-thiazole-4-carbonyl]-cyclopropyl-amino}-piperidine-1-carboxylic acid tert-butyl ester] was 1860 nM. `CC(C)(C)OC(=O)N1CCC(N(C(=O)c2ccc(-c3cnco3)nc2)C2CC2)CC1` [Example 5, 4-[Cyclopropyl-(6-oxazol-5-yl-pyridine-3-carbonyl)-amino]-piperidine-1-carboxylic acid tert-butyl ester] came in with an EC50 of 62 nM. The value for `CC(C)(C)OC(=O)N1CCC(N(C(=O)c2cn(-c3ccc(S(C)(=O)=O)cc3)cn2)C2CC2)CC1` [Example 17, 4-{Cyclopropyl-[1-(4-methanesulfonyl-phenyl)-1H-imidazole-4-carbonyl]-amino}-piperidine-1-carboxylic acid tert-butyl ester] was 680 nM. Turning to `CC(C)OC(=O)N1CCC(N(C(=O)c2cnc(-n3ccnc3)nc2)C2CC2)CC1` [Example 51, 4-[Cyclopropyl-(2-imidazol-1-yl-pyrimidine-5-carbonyl)-amino]-piperidine-1-carboxylic acid isopropyl ester], the concentration giving a half-maximal response (EC50) was 140 nM. Compound `CC(C)(C)OC(=O)N1CCC(N(C(=O)c2cnc(-c3ccc(C(=O)NC4CCOCC4)cc3F)nc2)C2CC2)CC1` [Example 145, 4-(Cyclopropyl-{2-[2-fluoro-4-(tetrahydro-pyran-4-ylcarbamoyl)-phenyl]-pyrimidine-5-carbonyl}-amino)-piperidine-1-carboxylic acid tert-buyl ester] gave an EC50 of 1000 nM. `CC(C)(CO)CNC(=O)c1ccc(-c2ncc(C(=O)N(C3CC3)C3CCN(C(=O)OC(C)(C)C)CC3)cn2)c(F)c1` [Example 101, 4-(Cyclopropyl-{2-[2-fluoro-4-(3-hydroxy-2,2-dimethyl-propylcarbamoyl)-phenyl]-pyrimidine-5-carbonyl}-amino)-piperidine-1-carboxylic acid tert-butyl ester] registered a 50% effective concentration (EC50) of 441 nM. Turning to `CC(C)(C)OC(=O)N1CCC(N(C(=O)c2cnc(-c3cnco3)cn2)C2CC2)CC1` [Example 12, 4-[Cyclopropyl-(5-oxazol-5-yl-pyrazine-2-carbonyl)-amino]-piperidine-1-carboxylic acid tert-butyl ester], the EC50 came to 72 nM.

Regarding `CC(C)(C)OC(=O)N1CCC(N(C(=O)c2cnc(-c3ccc(C(=O)NCc4ccccn4)c(F)c3)nc2)C2CC2)CC1` [Example 105, 4-[Cyclopropyl-(2-{3-fluoro-4-[(pyridin-2-ylmethyl)-carbamoyl]-phenyl}-pyrimidine-5-carbonyl)-amino]-piperidine-1-carboxylic acid tert-butyl ester], the concentration giving a half-maximal response (EC50) was determined as 144 nM. Turning to `CC(C)(C)OC(=O)N1CCC(N(C(=O)c2cnc(-c3ccc(C(=O)N4CCC[C@@H]4C#N)cc3)nc2)C2CC2)CC1` [Example 245, 4-({2-[4-(2-Cyano-pyrrolidine-1-carbonyl)-phenyl]-pyrimidine-5-carbonyl}-cyclopropyl-amino)-piperidine-1-carboxylic acid tert-butyl ester], the EC50 turned out to be 322 nM. The value for `Cc1noc(C)c1-c1ccc(C(=O)N(C2CC2)C2CCN(C(=O)OC(C)(C)C)CC2)cn1` [Example 11, 4-{Cyclopropyl-[6-(3,5-dimethyl-isoxazol-4-yl)-pyridine-3-carbonyl]-amino}-piperidine-1-carboxylic acid tert-butyl ester] was 136 nM; that for `CC(C)(C)OC(=O)N1CCC(N(C(=O)c2cnc(-c3ccc(N4CCOCC4)cc3)nc2)C2CC2)CC1` [Example 84, 4-{Cyclopropyl-[2-(4-morpholin-4-yl-phenyl)-pyrimidine-5-carbonyl]-amino}-piperidine-1-carboxylic acid tert-butyl ester] was 140 nM; that for `CN(CC#N)C(=O)c1ccc(-c2ncc(C(=O)N(C3CC3)C3CCN(C(=O)OC(C)(C)C)CC3)cn2)c(F)c1` [Example 140, 4-({2-[4-(Cyanomethyl-methyl-carbamoyl)-2-fluoro-phenyl]-pyrimidine-5-carbonyl}-cyclopropyl-amino)-piperidine-1-carboxylic acid tert-butyl ester] was 441 nM. `Cc1ccn(-c2ncc(C(=O)N(C3CC3)C3CCN(C(=O)OC(C)(C)C)CC3)cn2)n1` [Example 96, 4-{Cyclopropyl-[2-(3-methyl-pyrazol-1-yl)-pyrimidine-5-carbonyl]-amino}-piperidine-1-carboxylic acid tert-butyl ester] came in with an EC50 of 192 nM.
